Results published in US20240262835A1, “PRMT5 INHIBITING COMPOUNDS AND USES THEREOF” (ANTENGENE DISCOVERY LIMITED, priority 2023, published 2024).
Like-named read-outs stand apart in the source and are kept apart here. One block for each compound: values may come before it.

How the values were obtained:
[1] = target: PRMT5/MEP50 (Homo sapiens (Human), UniProt O14744); assay: MTase-Glo methyl transferase assay (PRMT5 inhibition); assay type: biochemical; conditions: 50 nM PRMT5/MEP50, 25 μM SAM, 5 μM Histone H4 peptide (1-21), read-out: IC50 for PRMT5 inhibiting
Method: The PRMT5 inhibitory activity of test compounds was determined using the MTase-Glo™ assay (Promega), which monitors the product (S-adenosyl homocysteine or SAH) of methyltransferase reactions. The PRMT5 MTase-Glo assays were conducted in a 384-well white ProxiPlate (PerkinElmer, catalog no.: 6008280) in a total volume of 12 μL. The PRMT5 enzymatic reaction (in 4 μL) contained 50 nM PRMT5/MEP50 (Reaction Biology Corp, catalog no.: HMT-22-148), 25 μM S-adenosyl methionine (SAM, Promega), 5 μM Histone H4 peptide (1-21) (BPS Bioscience, catalog no.: 52018-2) and five-fold serially diluted compounds in a reaction buffer of 50 mM Tris (pH 8.0), 50 mM NaCl, 0.01% Tween 20, 0.01% BSA, and 1 mM DTT. The test compounds were pre-incubated with PRMT5/MEP50 and Histone H4 peptide for 20 minutes at room temperature before the addition of SAM to initiate the PRMT5 reaction. The reaction was allowed to proceed for 1 hour at 37° C. and was terminated by 2 μL of 3× MTase-Glo™ Reagent (Promega) and 150 μM EPZ015666 (Selleck, catalog no.: 1616391-65-1). After a 30-minute incubation at room temperature, 6 μL of MTase-Glo™ Detection Solution (Promega) was added and the plate was incubated at room temperature for an additional 30 minutes. The light signal corresponding to the amount of SAH produced by the PRMT5 reaction was subsequently measured using an Envision multimode reader (PerkinElmer). IC50 and Ki values were obtained by analyzing dose-response curves using GraphPad Prism.

[2] = target: PRMT5/MEP50 complex (Homo sapiens (Human), UniProt O14744); assay: PRMT5/MEP50 HotSpot methyltransferase assay (with 100 nM MTA); assay type: biochemical; conditions: histone H2A substrate, 1 μM 3H-SAM
Method: The assay used recombinant full-length histone H2A as the substrate of PRMT5. Enzymatic transfer of the tritiated methyl group from S-adenosyl-L-[methyl-3H]methionine (3H-SAM) to the histone H2A protein generated a radiolabeled histone H2A by measuring in a scintillation counter to determine the activity of PRMT5 enzyme in the presence and absence of compound. The assay reactions were conducted in the presence of 100 nM MTA. Briefly, compounds were solubilized in 100% DMSO at the highest concentration of 10 mM. […] Control samples lacking compound, PRTM5/MEP50 complex or various reaction components also were prepared and processed in parallel with compound test samples. SAH was used as a positive control for assay validation. To measure PRMT5 inhibitory activity, 1 nM PRTM5/MEP50 complex was preincubated with test compound in assay buffer containing 5 μM full-length histone H2A for 15 minutes at room temperature. The enzymatic reaction was initiated by adding 1 μM 3H-SAM (final concentration) and the mixture was incubated at 30° C. for 1 hour. The reaction was stopped and transferred to filter paper for detection. The amount of tritiated H2A in each sample was determined using a scintillation counter. The IC50 value for each compound was calculated from each 10-point dose-response curve for samples using GraphPad Prism software.

[3] = tested on: HCT116 parental (wild type) cells; assay: HCT116 cell proliferation assay (CTG), parental cells; assay type: cell-based, human; conditions: Cell Titer-Glo
Method: (§1) Control samples were analyzed in parallel.
(§2) On Day 0, 150 HCT116 parental or HCT116 homozygous MTAP knockout cells were seeded in 96-well plates in McCoy's 5A medium containing 10% fetal bovine serum and pen/strep. And the cells were incubated overnight at 37° C. and 5% CO2.
(§3) On Day 1, cells were treated with 9-point serial dilution of compound, using a top concentration of 50 μM, 1:5 serial dilution steps and, a DMSO-only control. And cells were incubated for 6 days.
(§4) On Day 7, cell viability was measured using a CTG assay Kit (Cell Titer-Glo; Promega, catalog no.: G7573) in accordance with the manufacturer's instructions. Assays plates were read on a EnVision™ Multilabel Reader using the Ultra-Sensitive luminescence model. The data were analyzed by GraphPad Prism 5.0 software, and the dose-effect curve was obtained by fitting the data using nonlinear S-curve regression, from which the IC50 value was calculated.

[4] = tested on: HCT116 homozygous MTAP knockout cells; assay: HCT116 cell proliferation assay (CTG), MTAP knockout cells; assay type: cell-based, human; conditions: Cell Titer-Glo
Method: as §1, §2, §3, §4

[5] = Hepatic metabolic stability (HMS) assay, rat hepatocytes; conditions: rat, cryopreserved hepatocytes
Method: 1) 10 mM test compounds were provided.
(§5) 2) 30 mM positive control stock solutions: Dissolved accurate amount of positive control compounds in dimethyl sulfoxide (DMSO).
(§6) 3) 1000× Stock Solution: Diluted 10 mM test compounds and 30 mM positive control compounds to 1 mM and 3 mM with DMSO in 96-well plates.
(§7) 4) 100× Dosing Solution: Diluted 1 mM test compounds and 3 mM positive control compounds to 100 μM and 300 μM dosing solutions with ACN.
(§8) 5) Preparation of 0.5×10^6/mL cells suspension: cryopreserved cells were thawed, isolated and suspended in Incubation Medium, then diluted with pre-warmed Incubation Medium to 0.5×10^6 cells/mL.
(§9) 6) Add 198 μL of pre-warmed cell suspensions in 96-well plates.
(§10) 7) Preparation of Quenching Plate: Transfer 125 μL of stop solution in a set of pre-labeled 96-well plates.
(§11) 8) Spike 2 μL dosing solution to each well of 96-well plates in duplicate.
(§12) 9) For TO Samples, mix to achieve a homogenous suspension for about 1 min, then immediately transfer 25 μL of each sample into well containing 125 μL of ice-cold stop solution followed by mixing.
(§13) 10) Incubate all plates at 37° C. in a 95% humidified incubator at 5% CO2 to start the reactions with constant shaking.
(§14) 11) At 15, 30, 60 and 90 min, mix samples and then transfer 25 μL of each sample at each time point to well containing 125 μL of ice-cold stop solution followed by mixing.
(§15) 12) Medium Control (MC) sample plates (labeled as TO-MC and T90-MC) are prepared in the same way as cell incubation except that medium was used instead of cell suspension.
(§16) 13) At each corresponding time point, stop the reactions by removing the plates from incubator and mixing with 125 μL of ice-cold stop solution.
(§17) 14) Vortex the plates immediately on a plate shaker at 600 rpm for 10 minutes. Then, centrifuge all sample plates at 3220×g for 20 min at 4° C.
(§18) 15) After centrifugation, 80 μL/well of supernatant in the sample plates are transferred to another set of pre-labeled 96-well plates which containing 240 μL of ultra pure water according to the plate map.
(§19) 16) Analytical plates are sealed and store at 4° C. until LC-MS/MS analysis.
(§20) The remaining percents of test articles after incubation were calculated by the follow equations:
(§21) Use the following equation of first order kinetics to calculate T1/2 and CLint:

[6] = tested on: cryopreserved hepatocytes; assay: as above; conditions: rat, hepatocytes
Method: 1) 10 mM test compounds were provided.
as §5, §6, §7, §8, §9, §10, §11, §12, §13, §14, §15, §16, §17, §18, §19, §20, §21

[7] = Hepatic metabolic stability (HMS) assay, dog hepatocytes; conditions: dog, cryopreserved hepatocytes
Method: 1) 10 mM test compounds were provided.
as §5, §6, §7, §8, §9, §10, §11, §12, §13, §14, §15, §16, §17, §18, §19, §20, §21

[8] = tested on: cryopreserved hepatocytes; assay: as above; conditions: dog, hepatocytes
Method: 1) 10 mM test compounds were provided.
as §5, §6, §7, §8, §9, §10, §11, §12, §13, §14, §15, §16, §17, §18, §19, §20, §21

[9] = Hepatic metabolic stability (HMS) assay, human hepatocytes; conditions: human, cryopreserved hepatocytes
Method: 1) 10 mM test compounds were provided.
as §5, §6, §7, §8, §9, §10, §11, §12, §13, §14, §15, §16, §17, §18, §19, §20, §21

[10] = tested on: cryopreserved hepatocytes; assay: as above; conditions: human, hepatocytes
Method: 1) 10 mM test compounds were provided.
as §5, §6, §7, §8, §9, §10, §11, §12, §13, §14, §15, §16, §17, §18, §19, §20, §21

[11] = Hepatic metabolic stability (HMS) assay, mouse hepatocytes; conditions: mouse, cryopreserved hepatocytes
Method: 1) 10 mM test compounds were provided.
as §5, §6, §7, §8, §9, §10, §11, §12, §13, §14, §15, §16, §17, §18, §19, §20, §21

[12] = tested on: cryopreserved hepatocytes; assay: as above; conditions: mouse, hepatocytes
Method: 1) 10 mM test compounds were provided.
as §5, §6, §7, §8, §9, §10, §11, §12, §13, §14, §15, §16, §17, §18, §19, §20, §21

[13] = Hepatic metabolic stability (HMS) assay, cynomolgus monkey hepatocytes; conditions: cynomolgus monkey, cryopreserved hepatocytes
Method: 1) 10 mM test compounds were provided.
as §5, §6, §7, §8, §9, §10, §11, §12, §13, §14, §15, §16, §17, §18, §19, §20, §21

[14] = tested on: cryopreserved hepatocytes; assay: as above; conditions: cynomolgus monkey, hepatocytes
Method: 1) 10 mM test compounds were provided.
as §5, §6, §7, §8, §9, §10, §11, §12, §13, §14, §15, §16, §17, §18, §19, §20, §21

[15] = target: hERG potassium ion channel (Homo sapiens (Human), UniProt Q12809); assay: hERG potassium ion channel inhibition assay (automated patch-clamp, CHO-hERG cells); assay type: cell-based; conditions: Qpatch, highest test concentration 40.00 μM
Method: Drug-hERG interaction was measured by automated patch-clamp methods, with cisapride as positive control.
1.1 CHO-hERG cells were cultured in 175 cm^2 culture bottle. After the cell density grew to 60-80%, the culture medium was removed, washed with 7 mL of phosphate buffered saline (PBS), and then digested with 3 mL Detachin.
1.2 After the digestion was complete, 7 mL culture solution was added for neutralization, and then centrifuged, the clear solution was sucked, and 5 mL culture solution was added for re-suspension to ensure the cell density was 2˜5×10^6/mL.
The process of single-cell high-impedance sealing and whole-cell pattern formation was all automatically completed by Qpatch instrument. After obtaining whole-cell recording mode, the cell was pinching at −80 millivolts. Before giving a 5-second +40 millivolt depolarization stimulus, a 50-millisecond pre-voltage of −50 millivolts was given first, and then repolarized to −50 millivolts for 5 seconds. Go back to −80 millivolts. This voltage stimulation was applied every 15 seconds, recorded for 2 minutes, then extracellular fluid was given and recorded for 5 minutes, and then the administration process began. The concentration of test compound was given from the lowest test concentration for 2.5 minutes per test concentration. After continuous administration of all concentrations, the positive control 3 μM cisapride was given. At least 2 cells were tested for each concentration (n≥2).
4.1 The compound mother liquor was diluted with DMSO, and 10 μL compound stock solution was added to 20 μL DMSO solution, which was continuously 3-fold diluted to 6 DMSO-concentrations.
4.2 4 μL of test compounds in 6 DMSO-concentrations were added to 396 μL extracellular solution and were 100-fold diluted to 6 intermediate concentrations. Then, 80 μL of test compounds in 6 intermediate concentrations were added to 320 μL extracellular solution and were 5-fold diluted to the final concentration to be tested.
4.3 The highest test concentration was 40.00 μM, and six test concentrations were 40.00, 13.33, 4.44, 1.48, 0.49, 0.16 μM, respectively.
4.5 Entire dilution process for test compound preparation was performed by Bravo instrument.
The experimental data were analyzed by GraphPad Prism 5.0 software.

[16] = In vivo pharmacokinetics assay in mice via IV and PO; design: species or system ICR mice; conditions: plasma; for Cmax: read-out: Cmax; for AUC0-t: read-out: AUC0-t
Method: Pharmacokinetics assay for test compounds was performed in mice via IV and PO.
Test compound solution was prepared on the day of administration.
Solvent: IV+PO: 5% DMSO+10% Soultol+85% H2O or saline
Species: ICR mice; SPF level.
Source: Beijing Vital River Laboratory Animal Technology Co., Ltd.
Animal selection: Males. No random grouping
Weighed before dosing, calculated dosage according to body weight. For Groups 1-3, the drug was administered intravenously or intragastrically. For Group 4, the drug administered intragastrically.
For Groups 1-3, at 0.083 h, 0.25 h, 0.5 h, 1 h, 2 h, 4 h, 6 h, 8 h, 24 h, after administration. For Group 4, at 2 h and 4 h after administration.
Blood was collected through the cheeks. For each sample, about 0.05 mL of blood was collected and was added heparin sodium or EDTA-2K as anticoagulant, and was placed on wet ice.
The blood samples were collected and placed on ice and was centrifuged within 1 hour (centrifugation: 6000 g, 3 minutes, 2-8° C.) to separate plasma. Plasma samples were stored in a −80° C. refrigerator prior to analysis.
The pharmacokinetic parameters were calculated using Phoenix WinNonlin8.2.0 based on the blood concentration data at different time points, and AUC0-t, AUC0-∞, MRT0-∞, Cmax, Tmax, and T1/2 and mean values and standard deviations thereof were provided.

[17] = in vitro; conditions: human, microsomes
[18] = Liver microsome metabolic stability (LMS) assay, mouse; conditions: mouse, liver microsomes
[19] = rat, microsomes, 1 μM
[20] = in vitro; conditions: dog, microsomes
[21] = in vitro; conditions: cynomolgus monkey, microsomes
[22] = Liver microsome metabolic stability (LMS) assay, human; conditions: human, microsomes
[23] = Homo sapiens, HCT-116, 6 days treatment

Chain of PRMT5/MEP50 complex (O14744 whole entry, species assumed): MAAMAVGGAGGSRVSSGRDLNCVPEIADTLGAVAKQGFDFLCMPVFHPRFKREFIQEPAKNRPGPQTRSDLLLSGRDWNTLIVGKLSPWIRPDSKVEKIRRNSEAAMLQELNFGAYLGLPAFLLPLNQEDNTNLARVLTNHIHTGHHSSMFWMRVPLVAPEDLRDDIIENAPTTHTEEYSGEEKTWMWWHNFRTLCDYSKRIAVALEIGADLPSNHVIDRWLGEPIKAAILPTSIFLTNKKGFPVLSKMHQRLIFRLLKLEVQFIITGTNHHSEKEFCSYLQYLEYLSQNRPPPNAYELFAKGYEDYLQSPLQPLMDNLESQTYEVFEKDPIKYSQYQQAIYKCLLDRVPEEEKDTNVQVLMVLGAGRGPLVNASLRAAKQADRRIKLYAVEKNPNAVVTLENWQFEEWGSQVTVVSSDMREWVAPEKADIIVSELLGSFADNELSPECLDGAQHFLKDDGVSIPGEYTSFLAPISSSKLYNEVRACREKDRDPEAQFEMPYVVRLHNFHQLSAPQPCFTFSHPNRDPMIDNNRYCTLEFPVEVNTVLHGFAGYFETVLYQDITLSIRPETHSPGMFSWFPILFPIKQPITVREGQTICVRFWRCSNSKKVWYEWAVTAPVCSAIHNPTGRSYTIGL
Chain of PRMT5/MEP50 complex (Q9BQA1 whole entry partner, species assumed): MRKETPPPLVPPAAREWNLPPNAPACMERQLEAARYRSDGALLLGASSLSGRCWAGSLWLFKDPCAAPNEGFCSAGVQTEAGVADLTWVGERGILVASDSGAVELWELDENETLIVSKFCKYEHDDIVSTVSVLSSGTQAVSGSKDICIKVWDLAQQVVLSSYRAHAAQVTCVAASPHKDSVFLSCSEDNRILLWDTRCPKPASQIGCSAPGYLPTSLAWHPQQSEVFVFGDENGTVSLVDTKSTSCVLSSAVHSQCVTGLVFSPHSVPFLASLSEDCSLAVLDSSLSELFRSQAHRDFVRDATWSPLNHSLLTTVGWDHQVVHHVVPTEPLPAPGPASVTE
Chain of PRMT5/MEP50 (O14744 whole entry): as the sequence (O14744 whole entry, species assumed) above
Chain of PRMT5/MEP50 (Q9BQA1 whole entry partner): as the sequence (Q9BQA1 whole entry partner, species assumed) above
Chain of hERG potassium ion channel (Q12809 whole entry): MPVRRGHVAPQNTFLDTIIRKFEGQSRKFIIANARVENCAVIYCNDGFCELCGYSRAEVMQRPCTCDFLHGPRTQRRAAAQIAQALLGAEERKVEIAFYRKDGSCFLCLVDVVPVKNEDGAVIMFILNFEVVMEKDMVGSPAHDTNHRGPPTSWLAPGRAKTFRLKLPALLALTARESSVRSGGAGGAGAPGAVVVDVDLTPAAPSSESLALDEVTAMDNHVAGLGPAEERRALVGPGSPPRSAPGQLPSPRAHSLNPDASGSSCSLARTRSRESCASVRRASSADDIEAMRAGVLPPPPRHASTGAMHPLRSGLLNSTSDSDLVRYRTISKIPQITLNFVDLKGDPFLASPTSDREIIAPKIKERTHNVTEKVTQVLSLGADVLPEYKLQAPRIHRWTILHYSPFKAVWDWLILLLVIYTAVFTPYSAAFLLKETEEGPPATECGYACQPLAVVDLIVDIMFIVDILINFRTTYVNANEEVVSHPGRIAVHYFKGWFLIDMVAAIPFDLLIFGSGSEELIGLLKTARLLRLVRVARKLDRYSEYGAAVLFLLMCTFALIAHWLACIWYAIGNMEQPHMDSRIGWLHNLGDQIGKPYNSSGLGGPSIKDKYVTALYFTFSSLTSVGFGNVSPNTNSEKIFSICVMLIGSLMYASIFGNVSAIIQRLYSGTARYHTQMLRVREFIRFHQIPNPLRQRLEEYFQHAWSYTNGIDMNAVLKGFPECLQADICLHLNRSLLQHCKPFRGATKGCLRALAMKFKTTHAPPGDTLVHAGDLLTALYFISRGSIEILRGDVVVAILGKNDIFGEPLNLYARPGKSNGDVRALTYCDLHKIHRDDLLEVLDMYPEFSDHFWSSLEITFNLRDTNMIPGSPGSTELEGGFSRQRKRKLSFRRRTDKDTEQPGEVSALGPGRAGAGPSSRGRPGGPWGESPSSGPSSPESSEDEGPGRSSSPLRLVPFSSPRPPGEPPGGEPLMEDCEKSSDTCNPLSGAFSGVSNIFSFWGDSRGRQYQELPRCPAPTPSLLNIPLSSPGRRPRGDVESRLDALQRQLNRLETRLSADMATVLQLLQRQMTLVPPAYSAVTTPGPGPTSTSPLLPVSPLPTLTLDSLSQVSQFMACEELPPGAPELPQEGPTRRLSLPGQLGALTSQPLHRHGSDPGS

- IC50 [1]: 101 nM
- IC50 [2]: 321 nM
- IC50 ([4]; 6 days treatment): 72 nM
SMILES: Cc1nc(C)n2c1c(N)nc1ccc(C(=O)N(Cc3ccc(C(F)(F)F)cn3)[C@H](C)c3ncccn3)cc12 [Compound 9]
- IC50 ([3]; 6 days treatment): 1160 nM

- CLint scaled at 3 μM [5]: 3170 mL/min/kg
- half-life at 3 μM [5]: 2 min
- CLint (hep) R [6]: 678.0 μL/min/10^6
- CLint scaled at 3 μM [7]: 3270 mL/min/kg
- half-life at 3 μM [7]: 2.9 min
- CLint (hep) D [8]: 475.1 μL/min/10^6
- CLint scaled at 3 μM [9]: 1020 mL/min/kg
- half-life at 3 μM [9]: 3 min
- CLint (hep) H [10]: 367.6 μL/min/10^6
- CLint scaled at 3 μM [11]: 7220 mL/min/kg
- half-life at 3 μM [11]: 2.3 min
- CLint (hep) M [12]: 608.1 μL/min/10^6
- CLint scaled at 3 μM [13]: 2360 mL/min/kg
- half-life at 3 μM [13]: 2.1 min
- CLint (hep) C [14]: 655.8 μL/min/10^6
SMILES: O=c1ccc2ccc(O)cc2o1 [Ref. 2, 7-Hydroxycoumarin, reference compound]

- IC50 [1]: 91 nM
- IC50 [2]: 91 nM
- IC50 ([4]; 6 days treatment): 77 nM
SMILES: Cc1ncc2c(N)nc3ccc(C(=O)N(Cc4ccc(C(F)(F)F)cn4)[C@H](C)c4ncccn4)cc3n12 [Compound 7]
- IC50 ([3]; 6 days treatment): 961 nM

SMILES: CN(C(=O)c1cc2c(cn1)nc(N)c1cncn12)[C@@H]1COc2cc(C(F)(F)F)ccc21 [Compound 14]
- IC50 [1]: 47 nM
- IC50 [3, 23]: 6270 nM
- IC50 [4, 23]: 70 nM
- IC50 [15]: 17900 nM
- C8 h ([16]; PO 30 mg/kg): 3833 ng/mL
- C24 h ([16]; PO 30 mg/kg): 574 ng/mL
- C8 h ([16]; PO 50 mg/kg): 6927 ng/mL
- C24 h ([16]; PO 50 mg/kg): 615 ng/mL
- Cmax ([16]; male, ICR, mouse, PO 30 mg/kg): 7500 ng/mL
- Cmax ([16]; male, ICR, mouse, PO 50 mg/kg): 9920 ng/mL
- clearance ([16]; male, ICR, mouse, IV 1.0 mg/kg): 7.62 mL/min/kg
- half-life ([16]; male, ICR, mouse, PO 30 mg/kg): 358 min
- AUC0-t ([16]; male, ICR, mouse, PO 30 mg/kg): 81.1 µg·h/mL
- half-life ([16]; male, ICR, mouse, PO 50 mg/kg): 300 min
- AUC0-t ([16]; male, ICR, mouse, PO 50 mg/kg): 123 µg·h/mL
- half-life at 1 μM [17]: > 145 min
- half-life at 1 μM [18]: 132 min

SMILES: O=C(O)Cc1ccccc1Nc1c(Cl)cccc1Cl [Ref. 5, Diclofenac]
- CLint (liver) R [19]: 233.1 mL/min/kg
- half-life at 1 μM [17]: 6.7 min
- microsomal CLint at 1 μM [17]: 206 µL/min/mg
- CLint scaled at 1 μM [20]: < 13.8 mL/min/kg
- half-life at 1 μM [20]: > 145 min
- microsomal CLint at 1 μM [20]: < 9.6 µL/min/mg
- CLint scaled at 1 μM [21]: < 13 mL/min/kg
- half-life at 1 μM [21]: > 145 min
- microsomal CLint at 1 μM [21]: < 9.6 µL/min/mg
- CLint scaled at 1 μM [22]: 185 mL/min/kg

- IC50 [1]: 104 nM
- IC50 [2]: 198 nM
- IC50 ([4]; 6 days treatment): 97 nM
SMILES: Cc1ncn2c1c(N)nc1ccc(C(=O)N(Cc3ccc(C(F)(F)F)cn3)[C@H](C)c3ncccn3)cc12 [Compound 8]
- IC50 ([3]; 6 days treatment): 146 nM
